Legend:
Test in all cases: KinomeScan profiling
Format in all cases: binding
[1] = target: CAMK2G (Homo sapiens, UniProt Q13555); conditions: read-out: % control
Outline: (§1)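 First, compounds in DMSO are added at 1 μM to each of 468 kinase assays. Next, RLU signals are normalised between positive control (0%) and DMSO (100%). Finally, kinases under 35% are flagged active.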

[2] = target: T1, GAK (Homo sapiens, UniProt O14976); conditions: read-out: % control
T1 sequence (O14976 1-1311): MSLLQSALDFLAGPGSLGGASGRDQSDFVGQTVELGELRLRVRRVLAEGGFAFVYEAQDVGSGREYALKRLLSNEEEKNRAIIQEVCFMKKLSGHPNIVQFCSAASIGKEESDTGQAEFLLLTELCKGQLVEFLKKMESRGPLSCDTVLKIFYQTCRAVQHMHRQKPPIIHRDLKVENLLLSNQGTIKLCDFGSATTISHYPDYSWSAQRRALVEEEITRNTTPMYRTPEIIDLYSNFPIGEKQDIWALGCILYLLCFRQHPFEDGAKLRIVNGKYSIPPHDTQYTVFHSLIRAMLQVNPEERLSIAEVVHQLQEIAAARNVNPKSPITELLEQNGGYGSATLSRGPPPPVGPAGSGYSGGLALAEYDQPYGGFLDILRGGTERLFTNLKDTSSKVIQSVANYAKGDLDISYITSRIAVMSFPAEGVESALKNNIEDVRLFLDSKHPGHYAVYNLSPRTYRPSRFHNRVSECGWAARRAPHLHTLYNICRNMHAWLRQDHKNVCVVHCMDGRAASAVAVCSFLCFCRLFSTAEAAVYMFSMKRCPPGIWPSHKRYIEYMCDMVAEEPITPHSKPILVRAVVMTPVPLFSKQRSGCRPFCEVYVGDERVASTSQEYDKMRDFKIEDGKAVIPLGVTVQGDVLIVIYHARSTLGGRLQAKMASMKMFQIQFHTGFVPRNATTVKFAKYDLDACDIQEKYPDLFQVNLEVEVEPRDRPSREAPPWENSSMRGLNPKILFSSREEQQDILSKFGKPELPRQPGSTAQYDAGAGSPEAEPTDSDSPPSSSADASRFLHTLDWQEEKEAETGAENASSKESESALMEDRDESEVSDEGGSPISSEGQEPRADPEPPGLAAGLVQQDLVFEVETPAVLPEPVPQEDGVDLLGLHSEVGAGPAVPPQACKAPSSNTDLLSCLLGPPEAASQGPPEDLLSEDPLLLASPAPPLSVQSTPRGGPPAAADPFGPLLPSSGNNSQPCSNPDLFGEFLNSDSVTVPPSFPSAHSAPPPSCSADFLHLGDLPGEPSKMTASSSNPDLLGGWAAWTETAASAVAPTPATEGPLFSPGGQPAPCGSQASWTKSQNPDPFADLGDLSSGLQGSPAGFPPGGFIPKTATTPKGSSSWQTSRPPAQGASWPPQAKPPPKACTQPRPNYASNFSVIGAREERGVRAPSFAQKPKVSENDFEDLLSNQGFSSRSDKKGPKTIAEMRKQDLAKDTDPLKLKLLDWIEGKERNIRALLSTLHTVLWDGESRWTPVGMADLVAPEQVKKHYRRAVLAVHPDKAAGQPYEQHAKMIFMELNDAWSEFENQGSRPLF
Outline: as §1

[3] = target: MAST1 (Homo sapiens, UniProt Q9Y2H9); conditions: MAST1, 1 μM; read-out: % control
MAST1, sequence (Q9Y2H9 whole entry): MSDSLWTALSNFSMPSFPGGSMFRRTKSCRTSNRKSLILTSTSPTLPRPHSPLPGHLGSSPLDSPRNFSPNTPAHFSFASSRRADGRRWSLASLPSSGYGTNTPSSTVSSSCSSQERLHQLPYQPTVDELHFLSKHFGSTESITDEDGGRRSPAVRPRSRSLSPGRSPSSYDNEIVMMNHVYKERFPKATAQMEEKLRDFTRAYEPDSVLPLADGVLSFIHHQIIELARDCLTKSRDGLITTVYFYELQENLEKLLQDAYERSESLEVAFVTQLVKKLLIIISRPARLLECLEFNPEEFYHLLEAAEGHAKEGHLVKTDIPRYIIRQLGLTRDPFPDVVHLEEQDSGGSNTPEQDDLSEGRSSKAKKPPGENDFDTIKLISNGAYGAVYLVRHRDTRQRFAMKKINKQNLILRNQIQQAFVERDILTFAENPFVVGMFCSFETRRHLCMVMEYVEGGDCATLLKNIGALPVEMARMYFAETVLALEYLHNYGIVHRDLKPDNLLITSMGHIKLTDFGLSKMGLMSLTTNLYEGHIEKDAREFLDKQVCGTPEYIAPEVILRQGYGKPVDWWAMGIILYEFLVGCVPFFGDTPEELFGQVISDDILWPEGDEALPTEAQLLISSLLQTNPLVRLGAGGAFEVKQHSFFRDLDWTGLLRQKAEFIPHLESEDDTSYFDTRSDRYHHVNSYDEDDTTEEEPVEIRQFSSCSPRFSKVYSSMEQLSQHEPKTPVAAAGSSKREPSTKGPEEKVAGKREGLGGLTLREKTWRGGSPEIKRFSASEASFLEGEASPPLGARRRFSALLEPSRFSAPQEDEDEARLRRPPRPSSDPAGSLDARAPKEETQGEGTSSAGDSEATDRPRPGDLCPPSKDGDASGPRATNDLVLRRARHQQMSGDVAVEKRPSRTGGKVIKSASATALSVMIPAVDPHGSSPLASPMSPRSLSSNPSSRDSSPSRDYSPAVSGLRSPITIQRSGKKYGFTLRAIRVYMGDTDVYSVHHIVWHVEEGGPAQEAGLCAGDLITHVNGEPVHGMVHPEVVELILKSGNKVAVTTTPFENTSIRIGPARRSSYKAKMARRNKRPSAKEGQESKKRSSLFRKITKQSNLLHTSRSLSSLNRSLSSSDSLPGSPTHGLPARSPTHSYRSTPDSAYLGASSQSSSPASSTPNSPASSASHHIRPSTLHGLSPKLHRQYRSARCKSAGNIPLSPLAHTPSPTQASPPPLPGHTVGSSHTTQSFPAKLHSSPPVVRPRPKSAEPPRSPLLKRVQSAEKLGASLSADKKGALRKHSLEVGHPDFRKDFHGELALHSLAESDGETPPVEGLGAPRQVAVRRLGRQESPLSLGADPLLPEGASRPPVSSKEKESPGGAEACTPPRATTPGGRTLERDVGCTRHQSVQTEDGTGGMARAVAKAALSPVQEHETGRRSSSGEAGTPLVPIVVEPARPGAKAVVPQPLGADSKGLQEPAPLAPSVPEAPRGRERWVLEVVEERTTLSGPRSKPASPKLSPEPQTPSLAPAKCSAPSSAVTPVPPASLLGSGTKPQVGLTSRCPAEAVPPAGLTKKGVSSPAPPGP
Outline: as §1

[4] = target: PFPK5(P. falciparum) (Plasmodium falciparum, UniProt P61075); conditions: read-out: % control
PFPK5(P. falciparum), sequence (P61075 whole entry): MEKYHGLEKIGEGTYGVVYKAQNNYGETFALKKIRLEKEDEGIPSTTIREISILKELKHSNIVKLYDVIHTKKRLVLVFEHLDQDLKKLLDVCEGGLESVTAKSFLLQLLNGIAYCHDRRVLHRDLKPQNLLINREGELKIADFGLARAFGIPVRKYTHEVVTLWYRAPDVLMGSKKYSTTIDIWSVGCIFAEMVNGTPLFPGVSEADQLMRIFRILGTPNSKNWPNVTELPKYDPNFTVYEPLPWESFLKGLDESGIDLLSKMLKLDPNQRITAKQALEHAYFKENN
Outline: as §1

[5] = target: T2, TBK1 (Homo sapiens, UniProt Q9UHD2); conditions: TBK1, 1 μM; read-out: % control
T2 sequence (Q9UHD2 1-729): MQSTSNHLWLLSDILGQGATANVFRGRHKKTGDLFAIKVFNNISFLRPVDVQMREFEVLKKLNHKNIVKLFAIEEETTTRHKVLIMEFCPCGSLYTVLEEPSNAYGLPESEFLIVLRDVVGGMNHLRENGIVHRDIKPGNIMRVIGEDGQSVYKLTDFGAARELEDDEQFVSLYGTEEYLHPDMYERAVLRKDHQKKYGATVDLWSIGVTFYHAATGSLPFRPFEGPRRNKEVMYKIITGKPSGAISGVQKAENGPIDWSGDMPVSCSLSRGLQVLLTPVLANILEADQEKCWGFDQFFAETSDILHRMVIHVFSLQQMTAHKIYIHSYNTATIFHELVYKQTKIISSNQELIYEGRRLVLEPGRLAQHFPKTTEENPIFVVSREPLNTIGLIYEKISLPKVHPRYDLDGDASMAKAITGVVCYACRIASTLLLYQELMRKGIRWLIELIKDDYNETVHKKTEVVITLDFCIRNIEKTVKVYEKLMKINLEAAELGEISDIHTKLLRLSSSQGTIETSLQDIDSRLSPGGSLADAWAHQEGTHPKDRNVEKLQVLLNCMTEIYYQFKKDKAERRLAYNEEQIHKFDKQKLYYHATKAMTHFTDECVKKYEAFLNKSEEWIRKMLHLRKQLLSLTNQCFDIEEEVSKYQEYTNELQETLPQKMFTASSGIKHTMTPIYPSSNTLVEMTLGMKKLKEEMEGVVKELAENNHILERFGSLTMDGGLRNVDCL
Outline: as §1

[6] = target: T3, TGFBR1 (Homo sapiens, UniProt P36897); conditions: TGFBR1, 1 μM; read-out: % control
T3 sequence (P36897 34-503): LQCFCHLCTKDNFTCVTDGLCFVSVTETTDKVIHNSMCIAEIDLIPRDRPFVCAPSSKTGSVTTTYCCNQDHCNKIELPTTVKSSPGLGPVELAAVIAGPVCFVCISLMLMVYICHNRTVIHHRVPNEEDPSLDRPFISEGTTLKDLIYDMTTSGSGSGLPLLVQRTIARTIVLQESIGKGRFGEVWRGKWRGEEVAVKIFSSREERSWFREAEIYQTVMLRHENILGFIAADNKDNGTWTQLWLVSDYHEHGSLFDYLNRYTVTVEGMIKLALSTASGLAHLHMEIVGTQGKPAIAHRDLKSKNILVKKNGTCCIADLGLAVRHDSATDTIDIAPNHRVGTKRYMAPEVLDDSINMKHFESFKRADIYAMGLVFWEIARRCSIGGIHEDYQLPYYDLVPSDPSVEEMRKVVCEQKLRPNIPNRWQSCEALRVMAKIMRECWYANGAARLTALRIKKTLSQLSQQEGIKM
Outline: as §1

CAMK2G, sequence (Q13555 whole entry): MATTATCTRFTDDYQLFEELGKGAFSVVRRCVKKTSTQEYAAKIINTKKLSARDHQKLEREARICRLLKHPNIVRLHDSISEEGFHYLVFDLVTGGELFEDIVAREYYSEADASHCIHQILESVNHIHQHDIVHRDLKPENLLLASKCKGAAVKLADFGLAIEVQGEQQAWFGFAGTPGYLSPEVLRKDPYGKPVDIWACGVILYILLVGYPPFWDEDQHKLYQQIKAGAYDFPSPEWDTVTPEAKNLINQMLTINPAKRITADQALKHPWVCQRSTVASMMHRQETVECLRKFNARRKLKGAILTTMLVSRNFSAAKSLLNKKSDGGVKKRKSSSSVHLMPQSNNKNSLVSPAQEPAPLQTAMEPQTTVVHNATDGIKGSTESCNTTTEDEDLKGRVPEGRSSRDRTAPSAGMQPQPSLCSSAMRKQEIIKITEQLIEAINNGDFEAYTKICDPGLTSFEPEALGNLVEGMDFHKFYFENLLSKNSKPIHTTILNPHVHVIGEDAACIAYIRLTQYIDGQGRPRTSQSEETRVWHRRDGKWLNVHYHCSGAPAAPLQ

Row | SMILES | remaining binding at 1 µM [1] [%] | remaining binding at 1 µM [2] [%] | remaining binding at 1 µM [3] [%] | remaining binding at 1 µM [4] [%] | remaining binding at 1 µM [5] [%] | remaining binding at 1 µM [6] [%]
1 | CNc1c(-c2cnn([C@H]3CCN(C(C)=O)C[C@@H]3F)c2)cnc2[nH]cc(Cl)c12 [Compound 77, 1-((3S,4S)-4-(4-(3-chloro-4-(methylamino)-1H-pyrrolo[2,3-b]pyridin-5-yl)-1H-pyrazol-1-yl)-3-fluoropiperidin-1-yl)ethan-1-one] | 90 | 100 | 50 | 100 | 57 | 60
2 | O=C(c1ccc(-c2cnc3[nH]cc(Cl)c3c2NC2CCCC2)cc1)N1CCC(N2CCOCC2)CC1 [Compound 101, (4-(3-chloro-4-(cyclopentylamino)-1H-pyrrolo[2,3-b]pyridin-5-yl)phenyl)(4-morpholinopiperidin-1-yl)methanone] | 96 | 99 | 70 | 100 | 90 | 100
3 | CNc1c(-c2ccc(C(=O)N3CCC(N4CCOCC4)CC3)cc2)cnc2[nH]cc(Cl)c12 [Compound 96, (4-(3-chloro-4-(methylamino)-1H-pyrrolo[2,3-b]pyridin-5-yl)phenyl)(4-morpholinopiperidin-1-yl)methanone] | 95 | 99 | 24 | 100 | 91 | 56

— patent publication US12275731B2, “Azaindole inhibitors of wild-type and mutant forms of LRRK2” (DANA-FARBER CANCER INSTITUTE, INC., priority 2018, dated 2025)
